Laboratory results taken from patent publication US7537786B2, “Complex of drug-carbon nanohorn and a process for producing the complex” (NEC Corporation, priority 2005, dated 2009).

Columns and labels:
[1] = tested on: NCI-H460 cells; assay: WST-1 assay for cancer cell viability; assay type: cell-based, human; conditions: WST-1, incubation 46 and 72 hours
Method: The effect of CDDP released from CNHox was examined using the WST-1 assay. The CDDP-CNHox powder was added to human derived lung cancer cells NCI-H460. CDDP is a drug which has a effect on human lung cancer. These cells were maintained in RPMI-1640 medium containing 5% FBS at 37° C. in a humidified atmosphere with CO2 and air. For these cells, CDDP-CNHox or CDDP or CNHox was added respectively, and after the addition, each sample was examined. NCI-H460 cells were seeded at 4,000 cells/well and were cultured for 43 hours. Meanwhile, the cells were cultured for 67 hours when seeded at 2,500 cells/well (no addition of CDDP-CNHox or CDDP). And then it was confirmed that the NCI-H460 cells were extinct by drug addition. The amount of the extinct NCI-H460 cells was estimated by observing the decrease in the emission intensity to indicate the absorbency of formazan (with blue dye) showing the living of cells. And also, the NCI-H460 cells were directly observed using the optical microscope.

[2] = tested on: MC3T3-E1 cells; assay: ALP (alkaline phosphatase) activity assay; assay type: cell-based, mouse; conditions: MC3T3-E1, 10 days, differentiation-inducing medium with rhBMP-4
Method: Mouse osteoblastic cell (MC3T3-E1) lines were generously provided by Dr. Imamura (Cancer Institute, Japanese Foundation For Cancer Research). MC3T3-E1 cells were maintained in α-minimum essential medium (α-MEM) supplied with 5% FBS, […] in continuous culture at 37° C. in a humidified atmosphere of 5% CO2 and 95% air, and these cells were passaged every 3-4 days.
MC3T3-E1 cells were plated at 26,000 cells/cm^2 in 24 well plates and were grown until confluent. Next, the culture medium was exchanged with differentiation-inducing medium which consisted of α-MEM, 5% FBS, 100 U/ml penicillin, 100 μg/ml streptomycin, 50 μM ascorbic acid, 10 mM β-glycerophosphate and 20 ng/ml rhBMP-4. […]
For ALP activity assay, the medium was removed, and the cells were washed 3 times with TBS (20 mM Tris pH7.4, 150 mM NaCl), then harvested into 250 μl of TBS (contaning 0.2% Triton X-100) by scraping them on ice, and sonicated on ice for 5 min. […] The supernatant was mixed with p-nitro phosphate according to the manufacture's protocol, and the amount of p-nitrophenol released in 10 min was assessed by spectrophotometry (405 nm) with model 550 microplate-reader (Bio-Rad). Protein concentration of supernatant was assessed with protein quantitative assay kit (DC Protein Assay Kit) by the Lowry method. […]

Row | Structure (SMILES) | viability rate of NCI-H460 cells [1] | concentration at which ALP activity was increased [2]
1 | [NH2][Pt]([NH2])([Cl])[Cl] [CDDP, cisplatin] | decreased dose-dependently | –
2 | C[C@@H]1C[C@H]2[C@@H]3CCC4=CC(=O)C=C[C@]4(C)[C@@]3(F)[C@@H](O)C[C@]2(C)[C@@]1(O)C(=O)CO [DEX, Dexamethasone] | – | no less than 0.05 μM
